Results as given in ChEMBL document CHEMBL3045841, “Novel diamide insecticides: sulfoximines, sulfonimidamides and other new sulfonimidoyl derivatives” (Bioorg Med Chem Lett, 2012).
Values after ≈ are worked out from the molar mass of the structure shown. Active and inactive are the calls of the source. No cut-off for these calls is given here.

Tests used:
[1] = test system: Agrotis ipsilon; assay: Insecticidal activity against Agrotis ipsilon in maize assessed as control of pests measured after 12 to 22 days of seed application; type: functional, organism-based
[2] = test system: Liriomyza trifolii; assay: Insecticidal activity against Liriomyza trifolii in kidney beans assessed as control of pests measured after 12 to 22 days of seed application; type: functional, organism-based
[3] = test system: Plutella xylostella; assay: Insecticidal activity against Plutella xylostella (diamondback moth) assessed as mortality by greenhouse assay; type: functional
[4] = test system: Spodoptera frugiperda; assay: Insecticidal activity against Spodoptera frugiperda (fall armyworm) in maize assessed as control of pests measured after 12 to 22 days of seed application; type: functional, organism-based
[5] = Aqueous solubility of the compound at pH 7; type: physicochemical; conditions: buffer
[6] = test system: Spodoptera littoralis; assay: Insecticidal activity against Spodoptera littoralis in maize assessed as control of pests measured after 12 to 22 days of seed application; type: functional, organism-based
[7] = test system: Spodoptera littoralis; assay: Insecticidal activity against Spodoptera littoralis assessed as mortality by greenhouse assay; type: functional
[8] = test system: Phyllotreta striolata; assay: Insecticidal activity against Phyllotreta striolata in radish assessed as control of pests measured after 12 to 22 days of seed application; type: functional, organism-based
[9] = Lipophilicity, log P of the compound; type: physicochemical; conditions: octanol/water
[10] = test system: Myzus persicae; assay: Insecticidal activity against Myzus persicae (green peach aphid) assessed as mortality by greenhouse assay; type: functional

| Compound | Activity [1] | Activity [2] | EC80 [3] [µg/mL] | Activity [4] | solubility [5] [ppm] | Activity [6] | EC80 [7] [µg/mL] | Activity [8] | logP [9] | EC80 [10] [µg/mL] |
| --- | --- | --- | --- | --- | --- | --- | --- | --- | --- | --- |
| Cc1cc(Cl)cc(C(=O)NC(C)(C)CS(C)(=N)=O)c1NC(=O)c1cc(C(F)(F)F)nn1-c1ncccc1Cl (centres undefined) | Active | Active | 0.8 (≈ 1.35 µM) | Active | 196 | Active | 0.8 (≈ 1.35 µM) | Active | 2.4 | 50 (≈ 84.5 µM) |
| CNC(=O)c1cc(Cl)cc(C)c1NC(=O)c1cc(Br)nn1-c1ncccc1Cl [CHLORANTRANILIPROLE] | – | – | 0.8 (≈ 1.66 µM) | – | 1 | – | 0.8 (≈ 1.66 µM) | – | 2.8 | 50 (≈ 103 µM) |
| Cc1cc(Cl)cc(C(=O)NC(C)(C)CS(C)(=N)=O)c1NC(=O)c1cc(OCC(F)(F)F)nn1-c1ncccc1Cl (centres undefined) | Active | Active | 0.2 (≈ 0.322 µM) | Active | 295 | Active | 0.8 (≈ 1.29 µM) | Active | 2.4 | 12.5 (≈ 20.1 µM) |
| Cc1cc(C#N)cc(C(=O)NC(C)(C)CS(C)(=O)=N[N+](=O)[O-])c1NC(=O)c1cc(Br)nn1-c1ncccc1Cl (centres undefined) | – | – | 0.8 (≈ 1.25 µM) | – | 29 | – | 12.5 (≈ 19.6 µM) | – | 1.9 | 200 (≈ 314 µM) |
| Cc1cc(Cl)cc(C(=O)NC(C)(C)CS(C)(=O)=NC#N)c1NC(=O)c1cc(C(F)(F)F)nn1-c1ncccc1Cl (centres undefined) | – | – | 0.8 (≈ 1.3 µM) | – | 14 | – | 0.8 (≈ 1.3 µM) | – | 2.9 | 200 (≈ 324 µM) |
| Cc1cc(C#N)cc(C(=O)NC(C)(C)CS(C)(=N)=O)c1NC(=O)c1cc(Br)nn1-c1ncccc1Cl (centres undefined) | – | – | 0.8 (≈ 1.35 µM) | – | 42 | – | 0.8 (≈ 1.35 µM) | – | 1.1 | 12.5 (≈ 21.1 µM) |
| CNC(=O)c1cc(C#N)cc(C)c1NC(=O)c1cc(Br)nn1-c1ncccc1Cl [CYANTRANILIPROLE] | – | – | 0.8 (≈ 1.69 µM) | – | 14 | – | 3.1 (≈ 6.54 µM) | – | 1.9 | 12.5 (≈ 26.4 µM) |
| Cc1cc(C(F)(C(F)(F)F)C(F)(F)F)ccc1NC(=O)c1cccc(I)c1C(=O)NC(C)(C)CS(C)(=O)=O [FLUBENDIAMIDE] | – | – | 3.1 (≈ 4.54 µM) | – | 0.3 | – | 3.1 (≈ 4.54 µM) | – | – | > 200 |
| CN=S(=O)(CC(C)NC(=O)c1cc(C#N)cc(C)c1NC(=O)c1cc(Br)nn1-c1ncccc1Cl)NOC (centres undefined) | – | – | 3.1 (≈ 4.97 µM) | – | 17 | – | 50 (≈ 80.1 µM) | – | 1.8 | > 200 |
| CNS(=N)(=O)CC(C)NC(=O)c1cc(C#N)cc(C)c1NC(=O)c1cc(Br)nn1-c1ncccc1Cl (centres undefined) | – | – | 12.5 (≈ 21 µM) | – | 96 | – | 50 (≈ 84.2 µM) | – | 1.1 | 200 (≈ 337 µM) |
| CN=S(=O)(CC(C)NC(=O)c1cc(C#N)cc(C)c1NC(=O)c1cc(Br)nn1-c1ncccc1Cl)NN(C)C (centres undefined) | – | – | 12.5 (≈ 19.6 µM) | – | 48 | – | 50 (≈ 78.5 µM) | – | 2.1 | 12.5 (≈ 19.6 µM) |
| Cc1cc(C#N)cc(C(=O)NC(C)(C)CS(C)(=N)=O)c1NC(=O)c1cc(OCC(F)(F)F)nn1-c1ncccc1Cl (centres undefined) | – | – | 0.2 (≈ 0.327 µM) | – | 361 | – | 0.8 (≈ 1.31 µM) | – | 1.6 | 3.1 (≈ 5.07 µM) |
| Cc1cc(C#N)cc(C(=O)NC(C)(C)CS(C)(=O)=NC#N)c1NC(=O)c1cc(Br)nn1-c1ncccc1Cl (centres undefined) | – | – | 0.8 (≈ 1.29 µM) | – | 59 | – | 50 (≈ 80.9 µM) | – | 1.7 | 200 (≈ 324 µM) |
| CNS(=N)(=O)CC(C)NC(=O)c1cc(Cl)cc(C)c1NC(=O)c1cc(Br)nn1-c1ncccc1Cl (centres undefined) | – | – | 3.1 (≈ 5.14 µM) | – | 95 | – | 12.5 (≈ 20.7 µM) | – | 2 | 200 (≈ 331 µM) |
